Measured values as given in patent US10036011B2, “Scavenger compounds for improved sequencing-by-synthesis” (QIAGEN Waltham, Inc., priority 2016, dated 2018).
Entries after “also recorded” stand apart in the source; their conditions may differ. One block for each compound: values may come before it.

What was measured:
[1] = IPA solubility and stability in Cleave 1 solution / Cleave Reagent formulations (concentration curve); format: physicochemical; settings: for Color / Precipitate / Solubility / pH: Cleave 1 solution
Method: IPA was initially tested for solubility and stability in Cleave Reagent formulations. […] IPA was then tested by sequencing in a head-to-head comparison with the reference cleaving reagent, gallic acid, to provide a performance benchmark. IPA was implemented into a sequencing workflow as a standalone powder component to the cleave reagent. See, Example IV.
This example tests alternative formulations and chemistry for a cleave mix including TCEP as a standard reducing agent and IPA as a radical oxygen scavenger. The goal is to test both solubility and the ease of implementation into a kit configuration.
Formation of solid components directly within a Cleave 1 solution using an IPA concentration curve (10 mM, 25 mM and 50 mM) was assessed by measuring solubility, color, precipitate observation and pH level.

[2] = Carnitine and acetylcarnitine solubility and stability in Cleave reagent; format: physicochemical; settings: for solubility into Cleave reagent: 10 mM, 25 mM and 50 mM; for stability against discoloration and precipitation: cleave reagent formulations, storage at room temperature; for solubility in cleave reagent formulations: over a range of concentrations; for stability of solutions (discoloration or precipitate): room temperature (RT), a few hours of storage
Method: L-carnitine and O-acetyl-carnitine were tested for solubility and stability in cleave reagent formulations similarly to IPA. […] See, Example V.
This example tests carnitine-based compounds for solubility into Cleave reagent. Various concentrations (10 mM, 25 mM and 50 mM) of carnitine and acetylcarnitine were tested for solubility and stability.

Color ([1]; 10 mM/2-8 C.°, 0 hours): No color; also recorded: Transparent
Precipitate ([1]; 10 mM/2-8 C.°, 0 hours): None
Solubility ([1]; 10 mM/2-8 C.°, 0 hours): Excellent
pH ([1]; 10 mM/2-8 C.°, 0 hours): 12.81
Color ([1]; 10 mM/2-8 C.°, 8 hours): Transparent; also recorded: No color
Precipitate ([1]; 10 mM/2-8 C.°, 8 hours): None
Solubility ([1]; 10 mM/2-8 C.°, 8 hours): Excellent
pH ([1]; 10 mM/2-8 C.°, 8 hours): 12.80
Color ([1]; 10 mM/2-8 C.°, 48 hours): Transparent; also recorded: No color
Precipitate ([1]; 10 mM/2-8 C.°, 48 hours): None
Solubility ([1]; 10 mM/2-8 C.°, 48 hours): Excellent
pH ([1]; 10 mM/2-8 C.°, 48 hours): 12.83
Color ([1]; 10 mM/RT, 0 hours): Transparent; also recorded: No color
Precipitate ([1]; 10 mM/RT, 0 hours): None
Solubility ([1]; 10 mM/RT, 0 hours): Excellent
pH ([1]; 10 mM/RT, 0 hours): 12.88
Color ([1]; 10 mM/RT, 8 hours): Transparent; also recorded: No color
Precipitate ([1]; 10 mM/RT, 8 hours): None
Solubility ([1]; 10 mM/RT, 8 hours): Excellent
pH ([1]; 10 mM/RT, 8 hours): 12.83
Color ([1]; 10 mM/RT, 48 hours): Transparent; also recorded: No color
Precipitate ([1]; 10 mM/RT, 48 hours): None
Solubility ([1]; 10 mM/RT, 48 hours): Excellent
pH ([1]; 10 mM/RT, 48 hours): 12.79
Precipitate ([1]; 25 mM RT, 0 hours): None
Solubility ([1]; 25 mM RT, 0 hours): Excellent
pH ([1]; 25 mM RT, 0 hours): 12.78
Precipitate ([1]; 25 mM/2-8 C.°, 0 hours): None
Solubility ([1]; 25 mM/2-8 C.°, 0 hours): Excellent
pH ([1]; 25 mM/2-8 C.°, 0 hours): 12.75
Precipitate ([1]; 25 mM/2-8 C.°, 8 hours): None
Solubility ([1]; 25 mM/2-8 C.°, 8 hours): Excellent
pH ([1]; 25 mM/2-8 C.°, 8 hours): 12.71
Precipitate ([1]; 25 mM/2-8 C.°, 48 hours): None
Solubility ([1]; 25 mM/2-8 C.°, 48 hours): Excellent
pH ([1]; 25 mM/2-8 C.°, 48 hours): 12.76
Precipitate ([1]; 25 mM/RT, 8 hours): None
Solubility ([1]; 25 mM/RT, 8 hours): Excellent
pH ([1]; 25 mM/RT, 8 hours): 12.67
Precipitate ([1]; 25 mM/RT, 48 hours): None
Solubility ([1]; 25 mM/RT, 48 hours): Excellent
pH ([1]; 25 mM/RT, 48 hours): 12.71
Color ([1]; 50 mM/2-8 C.°, 0 hours): Transparent; also recorded: Pale yellow
Precipitate ([1]; 50 mM/2-8 C.°, 0 hours): None
Solubility ([1]; 50 mM/2-8 C.°, 0 hours): Excellent
pH ([1]; 50 mM/2-8 C.°, 0 hours): 12.67
Precipitate ([1]; 50 mM/2-8 C.°, 8 hours): None
Solubility ([1]; 50 mM/2-8 C.°, 8 hours): Excellent
pH ([1]; 50 mM/2-8 C.°, 8 hours): 12.61
Precipitate ([1]; 50 mM/2-8 C.°, 48 hours): None
Solubility ([1]; 50 mM/2-8 C.°, 48 hours): Excellent
pH ([1]; 50 mM/2-8 C.°, 48 hours): 12.64
Precipitate ([1]; 50 mM/RT, 0 hours): None
Solubility ([1]; 50 mM/RT, 0 hours): Excellent
pH ([1]; 50 mM/RT, 0 hours): 12.61
Precipitate ([1]; 50 mM/RT, 8 hours): None
Solubility ([1]; 50 mM/RT, 8 hours): Excellent
pH ([1]; 50 mM/RT, 8 hours): 12.69
Precipitate ([1]; 50 mM/RT, 48 hours): None
Solubility ([1]; 50 mM/RT, 48 hours): Excellent
pH ([1]; 50 mM/RT, 48 hours): 12.72
stability (lack of discoloration and/or formation of precipitate) ([1]; aqueous solution at pH ~12): relative stability
solubility in cleave reagent formulations ([1]; over a range of concentrations): highly soluble
solubility in aqueous solution ([1]; pH ~12): highly soluble
Structure (SMILES): O=C(O)CCc1c[nH]c2ccccc12 [IPA, indole-3-propionic acid]
stability against discoloration and precipitation ([1]; Cleave Reagent formulations, prolonged storage at room temperature): stable against discoloration and precipitation

solubility into Cleave reagent [2]: very soluble
solubility in cleave reagent formulations [2]: highly soluble
Structure (SMILES): C[N+](C)(C)C[C@H](O)CC(=O)[O-] [L-carnitine]
stability against discoloration and precipitation [2]: stable against discoloration and precipitation
stability of solutions (discoloration or precipitate) [2]: no discoloration or precipitate were observed

Structure (SMILES): CC(=O)O[C@H](CC(=O)[O-])C[N+](C)(C)C [O-acetyl-carnitine, O-acetyl-L-carnitine]
solubility into Cleave reagent [2]: very soluble
stability against discoloration and precipitation [2]: stable against discoloration and precipitation
solubility in cleave reagent formulations [2]: highly soluble
stability of solutions (discoloration or precipitate) [2]: no discoloration or precipitate were observed
